This passage reports EC50 and inhibition results from US20240166624A1, “PPARG INVERSE AGONISTS AND USES THEREOF” (Flare Therapeutics Inc., priority 2021, published 2024).

In assay [1] the target is T1, PPARG/RXRA LBD heterodimer (Homo sapiens, UniProt P37231).
T1 construct: His-TEV-Q203-Y477; Uniprot ID P37231-2; made in house; host or cells: E. coli
T1 sequence (P37231 203-477 isoform P37231-2): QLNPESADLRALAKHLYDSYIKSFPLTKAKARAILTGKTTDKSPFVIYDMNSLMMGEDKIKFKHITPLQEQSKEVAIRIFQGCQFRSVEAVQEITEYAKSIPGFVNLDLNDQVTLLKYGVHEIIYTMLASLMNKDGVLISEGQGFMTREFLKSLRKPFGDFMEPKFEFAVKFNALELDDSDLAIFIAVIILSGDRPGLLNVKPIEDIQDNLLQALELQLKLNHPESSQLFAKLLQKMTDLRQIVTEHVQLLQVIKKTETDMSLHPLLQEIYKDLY
T1 sequence (P19793 228-462 partner limits assumed): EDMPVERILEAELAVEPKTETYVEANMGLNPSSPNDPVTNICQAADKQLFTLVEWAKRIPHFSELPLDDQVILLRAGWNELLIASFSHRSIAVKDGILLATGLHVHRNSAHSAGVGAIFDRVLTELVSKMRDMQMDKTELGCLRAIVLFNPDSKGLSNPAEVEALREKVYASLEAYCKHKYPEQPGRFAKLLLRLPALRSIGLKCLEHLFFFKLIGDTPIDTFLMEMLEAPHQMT
Kind of assay: PPARγ-MED1 blockade assay (TR-FRET, biotinylated MED1 LxxLL peptide). In kind it is biochemical. The conditions noted are these: WT PPARG LBD/WT RXRA LBD, 80 nM Rosiglitazone, 3 hours. On the procedure: PPARγ-MED1 Blockade Assay:
Compound potency (IC50) and maximal extent of MED1 repulsion to PPARG were assessed a TR-FRET binding assay measuring association of a biotinylated MED1 LxxLL peptide (Biotin-[…]-amide) to PPARG/RXRA LBD heterodimer. Specifically, a 20 microliters of TR-FRET master mix consisting of 2 nM WT PPARG LBD (E. coli expressed, His-TEV-Q203-Y477; Uniprot ID P37231-2), 2 nM WT RXRA LBD (E. coli expressed, Flag-TEV-E228-T462; […]. Mixtures were incubated for 3 hours and read in an EnVision plate reader (Perkin Elmer) with Ex/Em 615/665. To determine the potency (IC50) and extent of MED1 repulsion, TR-FRET ratios were normalized to the average ratio of DMSO control wells (0%) and to the average minimum ratio for positive control compound (GW9662 (2-chloro-5-nitrobenzanilide); defined as 100%) in CDD Vault and analyzed using the Levenberg-Marquardt algorithm.

For assay [2], the system named is ANGPTL4, a PPARG target gene, in HT1197 (RXRA S427F mutation) cells. Kind of assay: Bladder cancer pharmacodynamic assay, HT1197 cell assay (qPCR of ANGPTL4). Type of assay: cell-based. The conditions noted are these: Homo sapiens, 24 hours, 100 nM compound, relative to DMSO control. How it is done:
Bladder Cancer Pharmacodynamic Assay
5637 (PPARG amplified) and HT1197 (RXRA S427F mutation) cells were used for assessment of modulation of PPARG target genes using quantitative PCR. Cells were treated for 24 hours with PPARG inverse agonists prior to analysis of FABP4 (IDT, Cat: Hs.PT 58.20106818) and ANGPTL4 (IDT, Cat: Hs.PT 58.25480012) expression, with expression of the housekeeping gene TBP (IDT, Cat: Hs.PT 58v.39858774) used to normalize expression across samples. Quantitative PCR was performed using an ABI QuantStudio 7 Flex Reaction system. Data were analyzed and reported relative to DMSO control using the comparative Ct method (ΔΔCt).

The target in assay [3] is T2, PPARG/RXRA LBD heterodimer (Homo sapiens, UniProt P37231).
T2 construct: His-TEV-Q203-Y477; Uniprot ID P37231-2; made in house; host or cells: E. coli
As to the kind of experiment: PPARγ-NCOR1 recruitment assay (TR-FRET, biotinylated NCOR1 ID2 peptide). Type of assay: biochemical. The conditions noted are these: 80 nM Rosiglitazone, 3 hours, read-out: PPARG-NCOR recruitment assay EC50. On the procedure:
PPARγ-NCOR1 Recruitment Assay:
Compound potency (EC50) and maximal extent of NCOR1 recruitment to PPARG were assessed a TR-FRET binding assay measuring association of a biotinylated NCOR1 ID2 peptide (Biotin-[…]-amide) to PPARG/RXRA LBD heterodimer. Specifically, a 20 microliters of TR-FRET master mix consisting of 2 nM WT PPARG LBD (E. coli expressed, His-TEV-Q203-Y477; Uniprot ID P37231-2), 2 nM WT RXRA LBD or mutant S427F RXRA LBD (E. coli expressed, Flag-TEV-E228-T462; […]. Mixtures were incubated for 3 hours and read in an EnVision plate reader (Perkin Elmer) with Ex/Em 615/665. To determine the potency (EC50) and extent of NCOR1 recruitment, TR-FRET ratios were normalized to the average ratio of DMSO control wells (0%) and to the average maximum ratio for positive control compound (T0070907 (2-chloro-5-nitro-N-4-pyridinyl-benzamide); defined as 100%) in CDD Vault and analyzed using the Levenberg-Marquardt algorithm.
T2 sequence (O75376 2251-2273 partner, one chain of several): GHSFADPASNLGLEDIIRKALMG

pEC50: −log10 of the molar value.

As to `N#Cc1ccc(Cl)c(-c2cc(=O)c3c(F)c(-c4cnn(C(F)F)c4)c(F)cc3[nH]2)c1` [Example 38, 4-chloro-3-(6-(1-(difluoromethyl)-1H-pyrazol-4-yl)-5,7-difluoro-4-oxo-1,4-dihydroquinolin-2-yl)benzonitrile], the pEC50 in assay [1] and in assay [3] was 6.00 to 7.00 in each case. In assay [2], this compound had an inhibition at 0.1 µM of 80%.

For `CS(=O)(=O)c1ccc(-c2c(F)cc3[nH]c(-c4cc(C#N)ccc4Cl)cc(=O)c3c2F)cc1` [Example 39, 4-chloro-3-(5,7-difluoro-6-(4-(methylsulfonyl)phenyl)-4-oxo-1,4-dihydroquinolin-2-yl)benzonitrile], the pEC50 in assay [1] and in assay [3] was 6.00 to 7.00 throughout. For the same compound, the inhibition at 0.1 µM in assay [2] was determined as 33%.

On to `Cc1cc(-c2c(F)cc3[nH]c(-c4cc(C#N)ccc4Cl)cc(=O)c3c2F)ccn1` [Example 40, 4-chloro-3-(5,7-difluoro-6-(2-methylpyridin-4-yl)-4-oxo-1,4-dihydroquinolin-2-yl)benzonitrile], for which the pEC50 in assay [1] and in assay [3] was 6.00 to 7.00 each time. Testing at 0.1 µM in assay [2] gave an inhibition of 72%.

For the compound `N#Cc1cccc(-c2c(F)cc3[nH]c(-c4cc(C#N)ccc4Cl)cc(=O)c3c2F)c1` [Example 41, 4-chloro-3-(6-(3-cyanophenyl)-5,7-difluoro-4-oxo-1,4-dihydroquinolin-2-yl)benzonitrile], the pEC50 in assay [1] was 6.00 to 7.00; in assay [3], 7.00 to 8.00. For the same compound, the inhibition at 0.1 µM in assay [2] was 72%.

On to `Cc1ncc(-c2c(F)cc3[nH]c(-c4cc(C#N)ccc4Cl)cc(=O)c3c2F)cn1` [Example 42, 4-chloro-3-(5,7-difluoro-6-(2-methylpyrimidin-5-yl)-4-oxo-1,4-dihydroquinolin-2-yl)benzonitrile], for which the pEC50 in assay [1] and in assay [3] was 6.00 to 7.00 each time. The compound also came in with an inhibition at 0.1 µM in assay [2] of 74%.

Consider `Cc1cc(-c2c(F)cc3[nH]c(-c4cc(C#N)ccc4Cl)cc(=O)c3c2F)cc(C)n1` [Example 43, 4-chloro-3-(6-(2,6-dimethylpyridin-4-yl)-5,7-difluoro-4-oxo-1,4-dihydroquinolin-2-yl)benzonitrile], for which the negative-log EC50 (pEC50) in assay [1] and in assay [3] was 6.00 to 7.00 each time. The same compound registered an inhibition at 0.1 µM in assay [2] of 75%.

For the compound `Cn1cc(-c2c(F)cc3[nH]c(-c4cc(C#N)ccc4Cl)cc(=O)c3c2F)cn1` [Example 44, 4-chloro-3-(5,7-difluoro-6-(1-methyl-1H-pyrazol-4-yl)-4-oxo-1,4-dihydroquinolin-2-yl)benzonitrile], the pEC50 in assay [1] and in assay [3] was 6.00 to 7.00 each time. In assay [2], this compound registered an inhibition at 0.1 µM of 75%.

For the compound `N#Cc1ccc(Cl)c(-c2cc(=O)c3c(F)c(C4COC4)c(F)cc3[nH]2)c1` [Example 45, 4-chloro-3-(5,7-difluoro-6-(oxetan-3-yl)-4-oxo-1,4-dihydroquinolin-2-yl)benzonitrile], the pEC50 in assay [1] and in assay [3] was 6.00 to 7.00 throughout. The inhibition at 0.1 µM in assay [2] was determined as 66%.

Consider `Cc1ccc(-c2c(F)cc3[nH]c(-c4cc(C#N)ccc4Cl)cc(=O)c3c2F)cn1` [Example 46, 4-chloro-3-(5,7-difluoro-6-(6-methylpyridin-3-yl)-4-oxo-1,4-dihydroquinolin-2-yl)benzonitrile], for which the pEC50 in assay [1] and in assay [3] was 6.00 to 7.00 in each case. The same compound yielded an inhibition at 0.1 µM in assay [2] of 80%.

On to `Cn1ccc(-c2c(F)cc3[nH]c(-c4cc(C#N)ccc4Cl)cc(=O)c3c2F)n1` [Example 47, 4-chloro-3-(5,7-difluoro-6-(1-methyl-1H-pyrazol-3-yl)-4-oxo-1,4-dihydroquinolin-2-yl)benzonitrile], for which the pEC50 in assay [1] and in assay [3] was 6.00 to 7.00 throughout. The compound also returned an inhibition at 0.1 µM in assay [2] of 66%.

On to `CC(C)(O)Cn1cc(-c2c(F)cc3[nH]c(-c4cc(C#N)ccc4Cl)cc(=O)c3c2F)cn1` [Example 48, 4-chloro-3-(5,7-difluoro-6-(1-(2-hydroxy-2-methylpropyl)-1H-pyrazol-4-yl)-4-oxo-1,4-dihydroquinolin-2-yl)benzonitrile], for which the pEC50 in assay [1] and in assay [3] was 5.00 to 6.00 throughout. The inhibition at 0.1 µM in assay [2] came to 47%.

As to `N#Cc1ccc(Cl)c(-c2cc(=O)c3c(F)c(-c4ccncc4F)c(F)cc3[nH]2)c1` [Example 49, 4-chloro-3-(5,7-difluoro-6-(3-fluoropyridin-4-yl)-4-oxo-1,4-dihydroquinolin-2-yl)benzonitrile], the negative-log EC50 (pEC50) in assay [1] and in assay [3] was 6.00 to 7.00 each time. Further, the inhibition at 0.1 µM in assay [2] is 52%.

Regarding `N#Cc1ccc(Cl)c(-c2cc(=O)c3c(F)c(-c4cnc(C(F)(F)F)nc4)c(F)cc3[nH]2)c1` [Example 50, 4-chloro-3-(5,7-difluoro-4-oxo-6-(2-(trifluoromethyl)pyrimidin-5-yl)-1,4-dihydroquinolin-2-yl)benzonitrile], the pEC50 in assay [1] and in assay [3] was 6.00 to 7.00 each time. In addition, the inhibition at 0.1 µM in assay [2] came to 80%.

Regarding `N#Cc1ccc(Cl)c(-c2cc(=O)c3c(F)c(-c4ccnc(C(F)F)c4)c(F)cc3[nH]2)c1` [Example 51, 4-chloro-3-(6-(2-(difluoromethyl)pyridin-4-yl)-5,7-difluoro-4-oxo-1,4-dihydroquinolin-2-yl)benzonitrile], the pEC50 in assay [1] and in assay [3] was 6.00 to 7.00 each time. In addition, the inhibition at 0.1 µM in assay [2] was found to be 56%.

As for `CN(C)CCn1cc(-c2c(F)cc3[nH]c(-c4cc(C#N)ccc4Cl)cc(=O)c3c2F)cn1` [Example 52, 4-chloro-3-(6-(1-(2-(dimethylamino)ethyl)-1H-pyrazol-4-yl)-5,7-difluoro-4-oxo-1,4-dihydroquinolin-2-yl)benzonitrile], the pEC50 in assay [1] and in assay [3] was 5.00 to 6.00 in each case. Further, the inhibition at 0.1 µM in assay [2] is 29%.

With `N#Cc1ccc(Cl)c(-c2cc(=O)c3c(F)c(-c4ccnc(C(F)(F)F)c4)c(F)cc3[nH]2)c1` [Example 53, 4-chloro-3-(5,7-difluoro-4-oxo-6-(2-(trifluoromethyl)pyridin-4-yl)-1,4-dihydroquinolin-2-yl)benzonitrile], the pEC50 in assay [1] and in assay [3] was 6.00 to 7.00 in each case. This compound registered an inhibition at 0.1 µM in assay [2] of 36%.

Turning to `N#Cc1ccc(Cl)c(-c2cc(=O)c3c(F)c(-c4cc[nH]c(=O)c4)c(F)cc3[nH]2)c1` [Example 54, 4-chloro-3-(5,7-difluoro-4-oxo-6-(2-oxo-1,2-dihydropyridin-4-yl)-1,4-dihydroquinolin-2-yl)benzonitrile], the negative-log EC50 (pEC50) in assay [1] and in assay [3] was 6.00 to 7.00 each time. In assay [2], this compound came in with an inhibition at 0.1 µM of 20%.

`N#Cc1ccc(Cl)c(-c2cc(=O)c3c(F)c(-c4ccc(C(F)(F)F)cn4)c(F)cc3[nH]2)c1` [Example 55, 4-chloro-3-(5,7-difluoro-4-oxo-6-(5-(trifluoromethyl)pyridin-2-yl)-1,4-dihydroquinolin-2-yl)benzonitrile]: the pEC50 in assay [1] and in assay [3] was 6.00 to 7.00 each time. Moreover, in assay [2], the inhibition at 0.1 µM was 65%.
